According to patent US12655116B2, “Substituted isophthalic acid diamides” (Bayer Aktiengesellschaft, priority 2020, dated 2026):

Assays:
ECHCG [1] = experiment: Pre-emergence herbicidal action against ECHCG; format: in vivo, Echinochloa crus-galli
In short: (§1)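 Visual rating at 3 weeks vs untreated pots; 0–100% scale, 100% = plants died. Treatment: aqueous WP/EC spray onto covering soil, 600–800 l/ha, 0.2% wetter, seeds in sandy loam.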

AMARE [2] = experiment: Post-emergence herbicidal action against AMARE; format: in vivo, Amaranthus retroflexus; settings: 20 g/ha, visual assessment about 3 weeks after treatment, 100% = plants have died, 0% = like control plants
In short: (§2)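 Weeds in sandy loam soil received a post-emergence spray at the one-leaf stage. Compounds were applied as WP or EC in water, 600 to 800 l/ha, with 0.2% wetting agent. Activity in % was judged visually after roughly 3 weeks against untreated plants.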

MATIN [3] = experiment: Post-emergence herbicidal action against MATIN; format: in vivo, Matricaria inodora; settings: dosage 20 g/ha
In short: as §2

MATIN [4] = experiment: Pre-emergence herbicidal action against MATIN; format: in vivo, Matricaria inodora
In short: as §1

ALOMY [5] = experiment: Pre-emergence herbicidal action against ALOMY; format: in vivo, Alopecurus myosuroides; settings: 80 g/ha, pre-emergence, scored visually after 3 weeks vs untreated controls (100% = plants have died, 0% = like control plants)
In short: as §1

ABUTH [6] = experiment: Pre-emergence herbicidal action against ABUTH; format: in vivo, Abutilon theophrasti; settings: for Pre-emergence action against ABUTH (herbicidal activity): 80 g/ha, scored visually after 3 weeks vs untreated controls (100% = plants have died, 0% = like control plants); for Pre-emergence action against ABUTH (herbicidal activity in percent): dosage 20 g/ha, scored visually after 3 weeks vs untreated controls, 100% = plants have died, 0% = like control plants
In short: as §1

DIGSA [7] = experiment: Post-emergence herbicidal action against DIGSA; format: in vivo, Digitaria sanguinalis; settings: for Post-emergence action against DIGSA: 20 g/ha
In short: as §2

SETVI [8] = experiment: Pre-emergence herbicidal action against SETVI; format: in vivo, Setaria viridis
In short: as §1

SETVI [9] = experiment: Post-emergence herbicidal action against SETVI; format: in vivo, Setaria viridis
In short: as §2

VIOTR [10] = experiment: Post-emergence herbicidal action against VIOTR; format: in vivo, Viola tricolor; settings: 20 g/ha
In short: as §2

HORMU = experiment: Pre-emergence herbicidal action against HORMU; format: in vivo, Hordeum murinum; settings: 80 g/ha, pre-emergence
From the text: Seeds of monocotyledonous and dicotyledonous weed plants and crop plants are laid out in sandy loam soil in wood-fiber pots and covered with soil. The compounds of the invention, formulated in the form of wettable powders (WP) or as emulsion concentrates (EC), are then applied to the surface of the covering soil in the form of an aqueous suspension or emulsion at a water application rate equivalent to 600 to 800 l/ha, with addition of 0.2% wetting agent. After the treatment, the pots are placed in a greenhouse and kept under good growth conditions for the trial plants. The damage to the test plants is scored visually after a test period of 3 weeks by comparison with untreated controls (herbicidal activity in percent (%): 100% activity=the plants have died, 0% activity=like control plants). […] The tables below illustrate, in an illustrative manner, the post-emergence herbicidal action of the compounds of the invention, the herbicidal activity being stated in percent.

ALOMY [11] = experiment: Post-emergence herbicidal action against ALOMY; format: in vivo, Alopecurus myosuroides; settings: dosage 20 g/ha, visual assessment about 3 weeks after treatment vs untreated controls
In short: as §2

STEME [12] = experiment: Post-emergence herbicidal action against STEME; format: in vivo, Stellaria media
In short: as §2

AVEFA = experiment: Pre-emergence herbicidal action against AVEFA; format: in vivo, Avena fatua; settings: 80 g/ha, pre-emergence
In short: as §1

VIOTR [13] = experiment: Pre-emergence herbicidal action against VIOTR; format: in vivo, Viola tricolor; settings: dosage 80 g/ha
In short: as §1

ABUTH [14] = experiment: Post-emergence herbicidal action against ABUTH; format: in vivo, Abutilon theophrasti; settings: visual assessment about 3 weeks after treatment vs untreated controls
In short: as §2

ECHCG [15] = experiment: Post-emergence herbicidal action against ECHCG; format: in vivo, Echinochloa crus-galli
In short: as §2

STEME [16] = experiment: Pre-emergence herbicidal action against STEME; format: in vivo, Stellaria media
In short: as §1

AMARE [17] = experiment: Pre-emergence herbicidal action against AMARE; format: in vivo, Amaranthus retroflexus
In short: as §1

DIGSA [18] = experiment: Pre-emergence herbicidal action against DIGSA; format: in vivo, Digitaria sanguinalis
In short: as §1

POLCO = experiment: Pre-emergence herbicidal action against POLCO; format: in vivo, Polygonum convolvulus; settings: dosage 80 g/ha
In short: as §1

PHBPU = experiment: Post-emergence herbicidal action against PHBPU; format: in vivo, Pharbitis purpurea; settings: dosage 20 g/ha
In short: as §2

[19] = 20 g/ha, scored visually after 3 weeks vs untreated controls, 100% = plants have died, 0% = like control plants
[20] = 80 g/ha, scored visually after 3 weeks vs untreated controls (100% = plants have died, 0% = like control plants)

Structure (SMILES)	Pre-emergence action against ECHCG in % (ECHCG [1]; 80 g/ha) [%]	Post-emergence action at 20 g/ha against AMARE in % (AMARE [2]) [%]	Post-emergence action against MATIN in % (MATIN [3]) [%]	Pre-emergence action against MATIN in % (MATIN [4]; dosage 20 g/ha) [%]	Pre-emergence action against MATIN in % (MATIN [4]; dosage 80 g/ha) [%]	Pre-emergence action against ALOMY (herbicidal activity) (ALOMY [5]) [%]	Pre-emergence action against ABUTH (herbicidal activity) (ABUTH [6]) [%]	Pre-emergence action against ABUTH (herbicidal activity in percent) (ABUTH [6]) [%]	Post-emergence action against DIGSA (DIGSA [7]) [%]	Pre-emergence action against SETVI in % (SETVI [8]; dosage 80 g/ha) [%]	Pre-emergence action against HORMU in % (HORMU) [%]	Post-emergence action against ALOMY in % (ALOMY [11]) [%]	Post-emergence action against STEME in % (STEME [12]; 20 g/ha) [%]	Pre-emergence action against AVEFA in % (AVEFA) [%]	Pre-emergence action against VIOTR in % (VIOTR [13]) [%]	Post-emergence action against ABUTH in % (ABUTH [14]; dosage 5 g/ha) [%]	Post-emergence action against ABUTH in % (ABUTH [14]; dosage 20 g/ha) [%]	Post-emergence action against ECHCG in % (ECHCG [15]; dosage 20 g/ha) [%]	Pre-emergence action against STEME in % (STEME [16]; dosage 20 g/ha) [%]	Pre-emergence action against STEME in % (STEME [16]; dosage 80 g/ha) [%]	further results
Cc1nnc(NC(=O)c2ccc(C(F)F)c(C(=O)NC3CC3)c2Cl)o1 [Example 6-124]	100	100	80	90	100	90	100	100	90	100	80	90	90	90	100	80	80	80	80	90	Pre-emergence action against ECHCG in % (ECHCG [1]; 20 g/ha): 80%; Pre-emergence action against SETVI in % (SETVI [8]; dosage 20 g/ha): 80%; Post-emergence action against SETVI in % (SETVI [9]; dosage 5 g/ha): 80%; Post-emergence action against SETVI in % (SETVI [9]; dosage 20 g/ha): 90%; Post-emergence action against VIOTR in % (VIOTR [10]): 100%; Post-emergence action against STEME in % (STEME [12]; dosage 5 g/ha): 90%; Pre-emergence action against AMARE in % (AMARE [17]; [19]): 100%; Pre-emergence action against AMARE in % (AMARE [17]; [20]): 100%; Pre-emergence action against DIGSA in % (DIGSA [18]; dosage 80 g/ha): 100%
CCNC(=O)c1c(C(F)(F)F)ccc(C(=O)Nc2nnc(C)o2)c1Br [Example 6-159]	100	100	90	100	100	80	100	100	90	100	80	80	90	90	100	90	100	90	80	100	Pre-emergence action against POLCO in % (POLCO): 80%; Post-emergence action against DIGSA in % (DIGSA [7]; 5 g/ha): 80%; Post-emergence action against PHBPU in % (PHBPU): 80%; Post-emergence action against ECHCG in % (ECHCG [15]; dosage 5 g/ha): 80%; Pre-emergence action against AMARE in % (AMARE [17]; [19]): 100%; Pre-emergence action against AMARE in % (AMARE [17]; [20]): 100%; Pre-emergence action against DIGSA in % (DIGSA [18]; dosage 20 g/ha): 90%; Pre-emergence action against DIGSA in % (DIGSA [18]; dosage 80 g/ha): 100%
